According to ChEMBL document CHEMBL3817753, “Neurosteroid-like Inhibitors of N-Methyl-d-aspartate Receptor: Substituted 2-Sulfates and 2-Hemisuccinates of Perhydrophenanthrene” (J Med Chem, 2016):

How the values were obtained:
[1] = biological target: Glutamate NMDA receptor; Grin1/Grin2b (Rattus norvegicus, UniProt P35439+Q00960); test: Inhibition of recombinant rat GluN1a/GluN2B co-expressed in HEK293 cells assessed as suppression of glutamate-induced current by patch-clamp method; type: cell-based
[2] = Inhibition of AMPAR in rat hippocampal neurons assessed as suppression of AMPA-induced current by whole-cell patch-clamp method; type: tissue-based; settings: Hippocampus
[3] = biological target: Ionotropic glutamate receptor NMDA 1/2D (Rattus norvegicus, UniProt P35439+Q62645); test: Inhibition of recombinant rat GluN1a/GluN2D co-expressed in HEK293 cells assessed as suppression of glutamate-induced current by patch-clamp method; type: cell-based
[4] = biological target: Glutamate NMDA receptor; Grin1/Grin2a (Rattus norvegicus, UniProt P35439+Q00959); test: Inhibition of recombinant rat GluN1a/GluN2A co-expressed in HEK293 cells assessed as suppression of glutamate-induced current by patch-clamp method; type: cell-based
[5] = Inhibition of GABAR in rat hippocampal neurons assessed as suppression of GABA-induced current by whole-cell patch-clamp method; type: tissue-based; settings: Hippocampus
[6] = biological target: Glutamate NMDA receptor; Grin1/Grin2c (Rattus norvegicus, UniProt P35439+Q00961); test: Inhibition of recombinant rat GluN1a/GluN2C co-expressed in HEK293 cells assessed as suppression of glutamate-induced current by patch-clamp method; type: cell-based
[7] = Inhibition of NMDAR in rat hippocampal neurons assessed as suppression of NMDA-induced current by whole-cell patch-clamp method; type: tissue-based; settings: Hippocampus

Chain of Glutamate NMDA receptor; Grin1/Grin2b (Q00960 whole entry, other chains not shown): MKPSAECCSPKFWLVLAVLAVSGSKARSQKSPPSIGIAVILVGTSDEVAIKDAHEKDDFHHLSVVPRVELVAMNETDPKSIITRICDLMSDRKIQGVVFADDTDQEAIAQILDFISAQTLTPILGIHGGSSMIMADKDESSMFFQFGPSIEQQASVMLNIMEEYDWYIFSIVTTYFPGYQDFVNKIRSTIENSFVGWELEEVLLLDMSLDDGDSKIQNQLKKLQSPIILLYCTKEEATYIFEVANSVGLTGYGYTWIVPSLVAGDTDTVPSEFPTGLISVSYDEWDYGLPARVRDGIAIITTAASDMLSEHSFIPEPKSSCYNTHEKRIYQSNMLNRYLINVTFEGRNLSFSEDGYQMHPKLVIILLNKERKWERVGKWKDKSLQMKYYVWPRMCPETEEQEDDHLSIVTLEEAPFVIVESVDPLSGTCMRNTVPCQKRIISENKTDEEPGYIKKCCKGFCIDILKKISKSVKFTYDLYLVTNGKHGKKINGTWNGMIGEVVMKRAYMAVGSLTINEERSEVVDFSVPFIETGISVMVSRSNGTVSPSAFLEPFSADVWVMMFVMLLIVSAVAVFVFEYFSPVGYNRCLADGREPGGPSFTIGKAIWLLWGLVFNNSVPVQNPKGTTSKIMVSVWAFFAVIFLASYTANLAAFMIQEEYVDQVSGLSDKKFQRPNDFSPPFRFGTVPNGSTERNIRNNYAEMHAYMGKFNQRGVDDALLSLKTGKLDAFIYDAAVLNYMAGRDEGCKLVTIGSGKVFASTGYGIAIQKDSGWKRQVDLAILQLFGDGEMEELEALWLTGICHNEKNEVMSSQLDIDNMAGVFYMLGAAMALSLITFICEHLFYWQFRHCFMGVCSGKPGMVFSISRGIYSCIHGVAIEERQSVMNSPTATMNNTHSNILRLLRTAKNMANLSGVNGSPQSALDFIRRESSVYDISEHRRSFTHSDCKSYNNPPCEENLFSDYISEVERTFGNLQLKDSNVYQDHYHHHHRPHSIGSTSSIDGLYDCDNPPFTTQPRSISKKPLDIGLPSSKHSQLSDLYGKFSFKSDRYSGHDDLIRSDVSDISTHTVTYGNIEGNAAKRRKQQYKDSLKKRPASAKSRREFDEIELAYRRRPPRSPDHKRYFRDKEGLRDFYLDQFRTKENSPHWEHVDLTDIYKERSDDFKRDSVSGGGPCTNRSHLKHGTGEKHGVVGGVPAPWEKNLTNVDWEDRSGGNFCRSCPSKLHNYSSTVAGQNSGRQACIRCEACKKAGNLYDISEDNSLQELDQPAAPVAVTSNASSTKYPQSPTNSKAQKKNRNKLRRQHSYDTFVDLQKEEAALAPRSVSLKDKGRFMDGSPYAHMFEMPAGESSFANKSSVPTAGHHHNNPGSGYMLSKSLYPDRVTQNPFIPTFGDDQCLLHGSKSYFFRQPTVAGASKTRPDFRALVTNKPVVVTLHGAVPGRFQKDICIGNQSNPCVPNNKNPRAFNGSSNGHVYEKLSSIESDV
Chain of Glutamate NMDA receptor; Grin1/Grin2c (Q00961 whole entry, other chains not shown): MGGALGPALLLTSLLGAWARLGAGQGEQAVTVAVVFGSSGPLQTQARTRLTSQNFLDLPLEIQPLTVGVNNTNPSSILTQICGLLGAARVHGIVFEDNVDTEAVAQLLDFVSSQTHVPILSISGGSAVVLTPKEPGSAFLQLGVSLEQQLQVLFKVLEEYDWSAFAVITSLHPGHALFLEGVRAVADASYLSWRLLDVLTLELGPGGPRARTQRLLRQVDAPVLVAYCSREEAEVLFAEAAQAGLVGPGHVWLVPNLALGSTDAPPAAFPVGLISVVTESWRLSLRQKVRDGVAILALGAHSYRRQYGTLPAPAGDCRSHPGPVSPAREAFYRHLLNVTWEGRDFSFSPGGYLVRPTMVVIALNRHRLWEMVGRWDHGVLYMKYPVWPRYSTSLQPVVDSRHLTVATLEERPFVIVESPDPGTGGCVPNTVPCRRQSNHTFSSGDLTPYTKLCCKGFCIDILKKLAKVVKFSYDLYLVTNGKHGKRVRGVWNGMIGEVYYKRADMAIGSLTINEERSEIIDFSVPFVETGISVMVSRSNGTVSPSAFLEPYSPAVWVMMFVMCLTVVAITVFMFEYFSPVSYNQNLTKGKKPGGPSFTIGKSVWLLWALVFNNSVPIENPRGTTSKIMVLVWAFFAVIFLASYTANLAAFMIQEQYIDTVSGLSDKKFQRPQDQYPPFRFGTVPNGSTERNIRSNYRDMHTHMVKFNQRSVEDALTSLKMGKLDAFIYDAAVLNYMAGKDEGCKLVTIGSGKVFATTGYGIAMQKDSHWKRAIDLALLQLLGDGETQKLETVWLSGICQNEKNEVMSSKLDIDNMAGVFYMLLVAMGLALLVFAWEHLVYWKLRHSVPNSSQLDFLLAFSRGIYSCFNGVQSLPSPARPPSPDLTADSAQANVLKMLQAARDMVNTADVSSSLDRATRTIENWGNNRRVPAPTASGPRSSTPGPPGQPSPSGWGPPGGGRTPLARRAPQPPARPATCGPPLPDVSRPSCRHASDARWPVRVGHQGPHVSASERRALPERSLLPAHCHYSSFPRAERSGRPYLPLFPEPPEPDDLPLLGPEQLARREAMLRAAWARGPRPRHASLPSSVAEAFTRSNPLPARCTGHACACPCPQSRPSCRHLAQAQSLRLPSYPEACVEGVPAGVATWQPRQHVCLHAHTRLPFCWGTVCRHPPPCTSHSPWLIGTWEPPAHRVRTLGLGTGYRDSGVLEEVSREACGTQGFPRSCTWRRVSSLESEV
Chain of Glutamate NMDA receptor; Grin1/Grin2a (Q00959 whole entry, other chains not shown): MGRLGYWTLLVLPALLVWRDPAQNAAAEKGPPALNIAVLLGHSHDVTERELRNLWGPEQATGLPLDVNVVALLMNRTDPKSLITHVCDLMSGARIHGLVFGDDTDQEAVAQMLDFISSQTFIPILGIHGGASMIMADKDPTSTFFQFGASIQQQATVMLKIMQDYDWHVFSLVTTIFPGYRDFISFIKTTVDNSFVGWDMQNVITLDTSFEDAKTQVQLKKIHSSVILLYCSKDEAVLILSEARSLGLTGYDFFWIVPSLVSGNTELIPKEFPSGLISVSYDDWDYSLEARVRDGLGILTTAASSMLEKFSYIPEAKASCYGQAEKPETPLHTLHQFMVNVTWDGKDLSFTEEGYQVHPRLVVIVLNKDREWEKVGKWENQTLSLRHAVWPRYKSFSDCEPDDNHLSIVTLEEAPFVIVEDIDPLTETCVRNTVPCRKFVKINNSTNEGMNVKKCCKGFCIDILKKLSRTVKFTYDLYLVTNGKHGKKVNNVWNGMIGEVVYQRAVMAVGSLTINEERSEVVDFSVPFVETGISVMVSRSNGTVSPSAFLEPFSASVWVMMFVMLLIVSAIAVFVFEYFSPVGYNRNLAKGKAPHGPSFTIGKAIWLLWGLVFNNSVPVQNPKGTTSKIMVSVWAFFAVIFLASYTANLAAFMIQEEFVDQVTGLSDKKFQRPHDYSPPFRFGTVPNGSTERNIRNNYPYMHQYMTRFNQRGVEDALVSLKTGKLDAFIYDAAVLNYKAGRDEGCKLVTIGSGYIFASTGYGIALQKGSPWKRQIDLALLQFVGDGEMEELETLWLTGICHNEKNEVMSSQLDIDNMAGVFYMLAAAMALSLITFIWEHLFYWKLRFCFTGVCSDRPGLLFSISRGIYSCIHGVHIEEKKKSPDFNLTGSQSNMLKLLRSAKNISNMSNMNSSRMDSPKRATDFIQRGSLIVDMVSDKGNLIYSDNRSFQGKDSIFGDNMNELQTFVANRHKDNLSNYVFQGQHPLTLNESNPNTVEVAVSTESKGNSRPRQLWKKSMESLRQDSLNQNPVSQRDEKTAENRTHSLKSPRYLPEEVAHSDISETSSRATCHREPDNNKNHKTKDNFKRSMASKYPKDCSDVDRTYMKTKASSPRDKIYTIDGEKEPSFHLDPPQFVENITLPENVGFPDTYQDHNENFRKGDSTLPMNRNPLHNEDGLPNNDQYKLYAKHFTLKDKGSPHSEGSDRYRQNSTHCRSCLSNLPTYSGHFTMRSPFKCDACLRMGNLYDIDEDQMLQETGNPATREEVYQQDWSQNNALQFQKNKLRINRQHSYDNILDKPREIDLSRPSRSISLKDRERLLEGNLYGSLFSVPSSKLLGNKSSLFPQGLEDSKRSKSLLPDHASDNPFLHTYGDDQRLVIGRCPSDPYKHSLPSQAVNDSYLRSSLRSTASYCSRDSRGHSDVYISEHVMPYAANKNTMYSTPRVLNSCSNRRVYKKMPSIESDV

| SMILES | IC50 [1] [µM] | other results |
| --- | --- | --- |
| COC(=O)[C@@]1(C)CC[C@H]2[C@@H](CC[C@@H]3C[C@H](OC(=O)CCC(=O)O)CC[C@@]32C)C1 | 87.6 |  |
| COC(=O)[C@@]1(C)CC[C@H]2[C@@H](CC[C@@H]3C[C@H](OS(=O)(=O)O)CC[C@@]32C)[C@@H]1C.c1ccncc1 | 74.6 |  |
| C[C@@H]1CC[C@H]2[C@@H](CC[C@@H]3C[C@H](OS(=O)(=O)O)CC[C@@]32C)C1.c1ccncc1 | 15.6 | IC50 [2]: 83 µM; IC50 [3]: 8.1 µM; IC50 [4]: 10.9 µM; IC50 [5]: 3.1 µM; IC50 [6]: 11.1 µM; IC50 [7]: 13.7 µM |
| COC[C@@]1(C)CC[C@H]2[C@@H](CC[C@@H]3C[C@H](OS(=O)(=O)O)CC[C@@]32C)C1.c1ccncc1 | 77 |  |

More lines, main results first:

| IC50 [1] [µM] | SMILES | other results |
| --- | --- | --- |
| 29.2 | COC[C@@]1(C)CC[C@H]2[C@@H](CC[C@@H]3C[C@H](OC(=O)CCC(=O)O)CC[C@@]32C)[C@@H]1C |  |
| 63.4 | COC(=O)[C@@]1(C)CC[C@H]2[C@@H](CC[C@@H]3C[C@H](OC(=O)CCC(=O)O)CC[C@@]32C)[C@@H]1C |  |
| 33.3 | COC[C@@]1(C)CC[C@H]2[C@@H](CC[C@@H]3C[C@H](OC(=O)CCC(=O)O)CC[C@@]32C)C1 |  |
